# Test results as given in patent US20250186434A1, “SOS1 PROTEIN DEGRADERS, PHARMACEUTICAL COMPOSITIONS THEREOF, AND THEIR THERAPEUTIC APPLICATIONS” (BioTheryX, Inc., priority 2022, published 2025).
# Biological target: T1, HiBiT-tagged endogenous SOS1 protein (Homo sapiens, UniProt Q07889)
# T1 construct: HEK293 cells were engineered to express a HiBiT-tagged endogenous SOS1 protein; endogenous in cells; host or cells: HEK293 (engineered, HiBiT knock-in at the endogenous SOS1 locus)
# T1 sequence (Q07889 1-1333): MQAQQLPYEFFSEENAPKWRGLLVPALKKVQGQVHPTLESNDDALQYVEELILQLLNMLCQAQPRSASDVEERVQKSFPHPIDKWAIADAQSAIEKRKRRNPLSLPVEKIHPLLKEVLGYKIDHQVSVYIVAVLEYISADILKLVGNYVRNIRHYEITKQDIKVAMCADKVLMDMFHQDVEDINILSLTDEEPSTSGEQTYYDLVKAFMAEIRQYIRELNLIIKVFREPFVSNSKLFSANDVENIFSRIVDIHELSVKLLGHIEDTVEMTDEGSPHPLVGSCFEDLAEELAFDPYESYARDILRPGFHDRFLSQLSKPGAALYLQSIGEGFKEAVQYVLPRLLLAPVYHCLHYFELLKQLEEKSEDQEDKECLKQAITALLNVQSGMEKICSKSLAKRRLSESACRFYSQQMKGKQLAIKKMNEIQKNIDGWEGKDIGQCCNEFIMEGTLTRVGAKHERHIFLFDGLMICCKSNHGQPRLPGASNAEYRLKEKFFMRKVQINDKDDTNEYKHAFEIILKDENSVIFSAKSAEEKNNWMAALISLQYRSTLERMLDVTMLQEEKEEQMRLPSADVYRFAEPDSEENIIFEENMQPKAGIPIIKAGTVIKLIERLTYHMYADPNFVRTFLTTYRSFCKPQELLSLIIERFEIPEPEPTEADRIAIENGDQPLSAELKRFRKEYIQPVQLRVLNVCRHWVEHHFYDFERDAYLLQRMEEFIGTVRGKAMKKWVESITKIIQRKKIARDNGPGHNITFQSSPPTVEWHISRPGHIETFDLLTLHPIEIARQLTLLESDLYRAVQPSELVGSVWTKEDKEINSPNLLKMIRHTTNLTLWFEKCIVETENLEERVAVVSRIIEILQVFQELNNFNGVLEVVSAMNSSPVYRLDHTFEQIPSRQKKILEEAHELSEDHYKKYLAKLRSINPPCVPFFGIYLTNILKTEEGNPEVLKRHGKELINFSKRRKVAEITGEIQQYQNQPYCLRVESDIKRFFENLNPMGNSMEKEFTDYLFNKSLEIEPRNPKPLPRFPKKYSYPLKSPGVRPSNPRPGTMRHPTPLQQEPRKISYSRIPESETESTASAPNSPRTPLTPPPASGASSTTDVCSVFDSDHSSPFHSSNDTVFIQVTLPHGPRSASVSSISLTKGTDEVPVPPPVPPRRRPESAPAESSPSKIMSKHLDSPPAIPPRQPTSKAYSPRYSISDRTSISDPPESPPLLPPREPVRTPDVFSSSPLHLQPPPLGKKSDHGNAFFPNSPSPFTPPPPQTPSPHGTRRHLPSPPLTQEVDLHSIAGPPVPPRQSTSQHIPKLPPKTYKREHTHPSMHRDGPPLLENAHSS
# Assay: SOS1-HiBiT Degradation Assay
# Assay type: cell-based
# Conditions: HEK293 cells expressing HiBiT-tagged endogenous SOS1, 6 h treatment
# Method: HEK293 cells were engineered to express a HiBiT-tagged endogenous SOS1 protein. The cells were cultured in DMEM media supplemented with 10% fetal bovine serum, streptomycin, and penicillin. The cells were seeded in a white walled 384-well plate at 12,500 cells/well in 50 μL culture media. The cells were incubated at 37° C. under 5% CO2 overnight. The cells were then treated with DMSO (control) or a compound for 6 h at 37° C. under 5% CO2. After incubation, 25 μL media was removed from each cell and 25 μL NANO-GLO® lytic detection reagent was added to each well. After a 10 min incubation with shaking, luminescence was measured using a PERKINELMER ENVISION® multimode plate reader.
Compound,DC50,Dmax
"Cc1c([C@@H](C)Nc2nnc(C)c3ccc(N4CCN(CCCCCN5CCC(c6cc7c(cc6F)C(=O)N(C6CCC(=O)NC6=O)C7)CC5)CC4)cc23)cccc1C(F)(F)F (stereo partly drawn) [Compound A101, 3-(6-fluoro-5-(1-(5-(4-(1-methyl-4-(((R)-1-(2-methyl-3-(trifluoromethyl)phenyl)-ethyl)amino)phthalazin-6-yl)piperazin-1-yl)pentyl)piperidin-4-yl)-1-oxoisoindolin-2-yl)-piperidine-2,6-dione]",≤ 100 nM,≥ 70%
"Cc1c([C@@H](C)Nc2nnc(C)c3ccc(N4CCN(CCCCCN5CCN(C(=O)CNc6ccc(C7CCC(=O)NC7=O)cc6)CC5)CC4)cc23)cccc1C(F)(F)F (stereo partly drawn) [Compound A301, 3-(4-((2-(4-(5-(4-(1-Methyl-4-(((R)-1-(2-methyl-3-(trifluoromethyl)phenyl)-ethyl)amino)phthalazin-6-yl)piperazin-1-yl)pentyl)piperazin-1-yl)-2-oxoethyl)amino)phenyl)-piperidine-2,6-dione]",> 2000 nM,< 30%
"Cc1c([C@@H](C)Nc2nnc(C)c3ccc(N4CCN(CCCCCCCCCN5CCN(C(=O)CNc6cccc7c(C8CCC(=O)NC8=O)nn(C)c67)CC5)CC4)cc23)cccc1C(F)(F)F (stereo partly drawn) [Compound A203, 3-(1-methyl-7-((2-(4-(9-(4-(1-methyl-4-(((R)-1-(2-methyl-3-(trifluoromethyl)-phenyl)ethyl)amino)phthalazin-6-yl)piperazin-1-yl)nonyl)piperazin-1-yl)-2-oxoethyl)amino)-1H-indazol-3-yl)piperidine-2,6-dione]",≤ 100 nM,≥ 70%
"Cc1c([C@@H](C)Nc2nnc(C)c3ccc(N4CCN(CCCCCCCCCN5CCN(C(=O)CNc6ccc(C7CCC(=O)NC7=O)cc6)CC5)CC4)cc23)cccc1C(F)(F)F (stereo partly drawn) [Compound A303, 3-(4-((2-(4-(9-(4-(1-methyl-4-(((R)-1-(2-methyl-3-(trifluoromethyl)phenyl)-ethyl)amino)phthalazin-6-yl)piperazin-1-yl)nonyl)piperazin-1-yl)-2-oxoethyl)amino)phenyl)-piperidine-2,6-dione]",≤ 100 nM,≥ 70%
"COc1cc2nc(C)nc(N[C@H](C)c3cc(N)cc(C(F)(F)F)c3)c2cc1OC [Compound C1, (R)—N-(1-(3-amino-5-(trifluoromethyl)phenyl)ethyl)-6,7-dimethoxy-2-methylquinazolin-4-amine, reference compound]",> 10000 nM,
"Cc1c([C@@H](C)Nc2nnc(C)c3ccc(N4CCN(CCCCCCCCCN5CCC(c6cc7c(cc6F)C(=O)N(C6CCC(=O)NC6=O)C7)CC5)CC4)cc23)cccc1C(F)(F)F (stereo partly drawn) [Compound A103, 3-(6-Fluoro-5-(1-(9-(4-(1-methyl-4-(((R)-1-(2-methyl-3-(trifluoromethyl)phenyl)-ethyl)amino)phthalazin-6-yl)piperazin-1-yl)nonyl)piperidin-4-yl)-1-oxoisoindolin-2-yl)-piperidine-2,6-dione]",≤ 100 nM,≥ 70%
